# Data taken from patent US20260226077A1, “TYPE II TOPOISOMERASE INHIBITORS AND METHODS OF MAKING AND USING THEREOF” (Ohio State Innovation Foundation, priority 2023, published 2026).
# pIC50: −log10 of the molar value. Marks after values point to notes of the source that are not given here.
# Legend:
# FQ-R MRSA = assay: MIC against FQ-R MRSA isolates; type: cell-based, Staphylococcus aureus; details: n = 15 (147), n = 25 (284, 319, gepotidacin); for MIC90: Staphylococcus aureus, MRSA
# D83N = assay: MIC against D83N mutant; type: cell-based
# TopoIV/gyrase = TopoIV/gyrase inhibition ratio; type: biochemical
# hERG = hERG (Homo sapiens, UniProt Q12809); assay: hERG inhibition; type: cell-based
# Chain of hERG (Q12809 whole entry): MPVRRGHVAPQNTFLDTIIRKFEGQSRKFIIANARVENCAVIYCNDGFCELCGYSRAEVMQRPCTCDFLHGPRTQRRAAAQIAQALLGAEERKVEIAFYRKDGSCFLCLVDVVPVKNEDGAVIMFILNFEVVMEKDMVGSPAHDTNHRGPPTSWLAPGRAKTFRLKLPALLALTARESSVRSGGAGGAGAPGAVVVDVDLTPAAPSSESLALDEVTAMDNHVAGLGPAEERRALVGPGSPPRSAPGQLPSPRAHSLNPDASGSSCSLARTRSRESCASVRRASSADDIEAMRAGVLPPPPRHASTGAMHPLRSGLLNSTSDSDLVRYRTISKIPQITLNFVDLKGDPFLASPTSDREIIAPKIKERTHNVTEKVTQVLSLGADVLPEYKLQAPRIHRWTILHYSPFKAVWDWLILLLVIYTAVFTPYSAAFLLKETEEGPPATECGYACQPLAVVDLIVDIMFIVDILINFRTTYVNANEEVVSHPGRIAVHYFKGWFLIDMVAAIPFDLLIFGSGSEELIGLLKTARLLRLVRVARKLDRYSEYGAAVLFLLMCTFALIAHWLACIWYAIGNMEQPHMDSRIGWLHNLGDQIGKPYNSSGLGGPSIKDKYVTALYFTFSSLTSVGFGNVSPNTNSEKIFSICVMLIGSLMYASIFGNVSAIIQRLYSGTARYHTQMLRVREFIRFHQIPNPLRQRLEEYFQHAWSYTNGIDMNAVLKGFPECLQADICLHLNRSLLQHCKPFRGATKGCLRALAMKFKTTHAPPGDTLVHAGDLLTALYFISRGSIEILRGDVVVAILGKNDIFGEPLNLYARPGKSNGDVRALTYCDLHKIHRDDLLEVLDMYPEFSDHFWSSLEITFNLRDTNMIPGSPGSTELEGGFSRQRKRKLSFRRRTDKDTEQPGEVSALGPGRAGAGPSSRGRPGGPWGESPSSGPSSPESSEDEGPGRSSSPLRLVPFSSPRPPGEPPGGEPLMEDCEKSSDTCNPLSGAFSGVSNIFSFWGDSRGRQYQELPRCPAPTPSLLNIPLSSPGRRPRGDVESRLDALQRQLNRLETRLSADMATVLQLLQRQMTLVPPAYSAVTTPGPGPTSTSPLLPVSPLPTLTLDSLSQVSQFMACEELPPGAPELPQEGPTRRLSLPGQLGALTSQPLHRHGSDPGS
# K562 = K562 cytotoxicity; type: cell-based; details: Homo sapiens
# [1] = Mouse microsomal stability; type: in vitro ADME; details: microsomes, read-out: Mouse microsom. t1/2
# [2] = Human microsomal stability; type: in vitro ADME; details: microsomes, read-out: Human microsom. t1/2
# S. aureus ATCC 29213 = type: cell-based; details: Using S. aureus ATCC 29213
# Staphylococcus aureus = assay: MIC50/90 against Staphylococcus aureus isolates; type: cell-based; details: n = 30 (147), n = 100 (284, 319, gepotidacin)
# Enterococcus spp. = assay: MIC50/90 against Enterococcus spp.; type: cell-based; details: n = 10 (147), n = 20 (others)
# Streptococcus pneumoniae = assay: MIC50/90 against Streptococcus pneumoniae; type: cell-based; details: for MIC50: n = 5 (147), n = 10 (others); for MIC90: n = 10
# Streptococcus pyogenes = assay: MIC50/90 against Streptococcus pyogenes; type: cell-based; details: for MIC50: n = 5 (147), n = 10 (others); for MIC90: n = 10
# Streptococcus agalactiae = assay: MIC50/90 against Streptococcus agalactiae; type: cell-based; details: Streptococcus agalactiae; for MIC50: n = 5 (147), n = 10 (others); for MIC90: n = 10
# Bacillus anthracis = assay: microbe, parasite or virus in culture; type: cell-based; details: for MIC50: read-out: Bacillus anthracis MIC50 (μg/mL); for MIC90: read-out: Bacillus anthracis MIC90 (μg/mL)
# Neisseria gonorrhoeae = assay: MIC50/90 against Neisseria gonorrhoeae; type: cell-based; details: Neisseria gonorrhoeae; n = 17 (284, gepotidacin); n = 110 (147)
# Escherichia coli 25922 = assay: MIC against Escherichia coli 25922; type: cell-based; details: Escherichia coli, 25922
# [3] = system: Acinetobacter baumannii 19606; assay: MIC against Acinetobacter baumannii 19606; type: cell-based
# [4] = system: Pseudomonas aeruginosa 27853; assay: MIC against Pseudomonas aeruginosa 27853; type: cell-based
# [5] = system: CYP 1A, 2B6, 2C8, 2C9, 2C19, 2D6, 3A; assay: CYP inhibition at 10 μM; type: in vitro ADME
# CACO-2 = assay: Permeability: CACO-2 A->B; type: in vitro ADME
# 5-HT2b = 5-HT2b (Homo sapiens, UniProt P41595); assay: Safety44 screen at 100 μM: 5-HT2b
# Chain of 5-HT2b (P41595 whole entry): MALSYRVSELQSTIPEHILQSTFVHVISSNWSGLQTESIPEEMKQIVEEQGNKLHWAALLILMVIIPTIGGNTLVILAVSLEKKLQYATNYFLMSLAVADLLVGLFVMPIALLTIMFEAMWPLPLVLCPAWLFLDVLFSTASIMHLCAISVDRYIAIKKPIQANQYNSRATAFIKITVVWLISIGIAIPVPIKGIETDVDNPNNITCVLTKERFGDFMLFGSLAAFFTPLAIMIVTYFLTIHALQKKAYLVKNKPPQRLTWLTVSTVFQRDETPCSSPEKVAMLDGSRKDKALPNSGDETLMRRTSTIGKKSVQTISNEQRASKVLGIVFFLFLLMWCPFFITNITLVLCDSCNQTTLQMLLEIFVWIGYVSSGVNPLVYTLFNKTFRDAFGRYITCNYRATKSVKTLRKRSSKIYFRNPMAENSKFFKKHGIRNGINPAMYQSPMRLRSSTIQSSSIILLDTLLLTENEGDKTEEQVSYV
# [6] = not given; remark: listed apart in the source
# in vivo = details: mouse
# physchem = details: pH 7.4, aqueous buffer, kinetic from dmso stock, Kinetic solubility at pH 7.4-7.5 (μM)
# Mouse pharmacokinetics = details: 284: as free base in immunocompetent mice, 147: no footnote
# M121K = assay: MIC against M121K mutant; type: cell-based
# Rat microsomal stability = type: in vitro ADME; details: microsomes, read-out: Rat microsom. t1/2
# Dog microsomal stability = type: in vitro ADME; details: microsomes, read-out: Dog microsom. t1/2
# [7] = Monkey microsomal stability; type: in vitro ADME; details: microsomes, read-out: Monkey microsom. t1/2
# Escherichia coli = assay: MIC50 against Escherichia coli isolates; type: cell-based; details: n = 8
# Pseudomonas aeruginosa = assay: MIC50 against Pseudomonas aeruginosa isolates; type: cell-based; details: n = 8
# [8] = Permeability: CACO-2 A->B; type: in vitro ADME; details: human, Caco-2
# [9] = Permeability: MDCK II A->B; type: in vitro ADME; details: dog
# S. aureus 29213 = assay: MIC against S. aureus 29213; type: cell-based; details: Staphylococcus aureus
# S. aureus USA300 = assay: MIC against S. aureus USA300; type: cell-based; details: Staphylococcus aureus
# S. aureus CF isolate = assay: MIC against S. aureus CF isolate; type: cell-based; details: Staphylococcus aureus
# [10] = all channels
# in vitro [11] = details: mouse, plasma
# in vitro [12] = details: human, plasma
# in vitro [13] = details: rat, plasma
# [14] = system: Staphylococcus epidermidis; assay: MIC50/90 against Staphylococcus epidermidis; type: cell-based; details: n = 10
# Moraxella catarrhalis = assay: MIC50/90 against Moraxella catarrhalis; type: cell-based; details: n = 10
# Haemophilus influenzae = assay: MIC50/90 against Haemophilus influenzae; type: cell-based; details: n = 10
# Mycobacterium abscessus = assay: MIC50/90 against Mycobacterium abscessus; type: cell-based; details: Mycobacteroides abscessus; n = 10
# Mycobacterium avium = assay: MIC50 against Mycobacterium avium; type: cell-based; details: n = 4
# [15] = system: Mycobacterium chimaera intracellulare group; assay: MIC50 against Mycobacterium chimaera intracellulare group; type: cell-based; details: n = 6
# Francisella tularensis = assay: microbe, parasite or virus in culture; type: cell-based
# Yersinia pestis = assay: microbe, parasite or virus in culture; type: cell-based
# Burkholderia mallei = assay: microbe, parasite or virus in culture; type: cell-based; details: Burkholderia mallei
# [16] = system: Burkholderia pseudomallei; assay: microbe, parasite or virus in culture; type: cell-based
# [17] = in vivo; cited from earlier work
compound,measurement,setting,value
"COc1ccc2ncc(F)c(C[C@H](O)[C@H]3OC[C@H](NCc4cc5c(nn4)OCCS5)CO3)c2n1 [Compound 147, reference compound]",MIC90,FQ-R MRSA,0.25 µg/mL
same,MIC,D83N,4 to 8 µg/mL
same,TopoIV/gyrase ratio,TopoIV/gyrase,16
same,pIC50,hERG,3.99
same,pIC50,K562,3.82
same,half-life,[1],0.3 to 0.433 h
same,half-life,[2],1.57 h
same,Resistance freq. (at 8X MIC),S. aureus ATCC 29213,2.02 × 10^−9*
same,MIC50,Staphylococcus aureus,0.12 µg/mL
same,MIC90,Staphylococcus aureus,0.25 µg/mL
same,MIC50,Enterococcus spp.,0.25 µg/mL
same,MIC90,Enterococcus spp.,1 µg/mL
same,MIC50,Streptococcus pneumoniae,0.5 µg/mL
same,MIC50,Streptococcus pyogenes,0.5 µg/mL
same,MIC50,Streptococcus agalactiae,4 µg/mL
same,MIC50,Bacillus anthracis,2 µg/mL
same,MIC90,Bacillus anthracis,8 µg/mL
same,MIC50,Neisseria gonorrhoeae,> 4 µg/mL
same,MIC90,Neisseria gonorrhoeae,> 4 µg/mL
same,MIC,Escherichia coli 25922,> 64 µg/mL
same,MIC,[3],64 µg/mL
same,MIC,[4],> 64 µg/mL
same,"CYP inhibition at 10 μM (1A, 2B6, 2C8, 2C9, 2C19, 2D6, 3A)",[5],No issues
same,Permeability: CACO-2 A−>B (×10^−6 cm/s),CACO-2,5.68 ×10^−6 cm/s
same,Safety44 screen at 100 μM: 5-HT2b,5-HT2b,5-HT2b (72%)
same,Mouse plasma protein binding (% unbound),,12 % unbound
same,Human plasma protein binding (% unbound),[6],15 % unbound
same,Vd,in vivo; Mouse Vdss (L),1 L
same,bioavailability,"in vivo; po, Mouse PK Oral bioavailability (%)",49%
same,solubility kinetic,physchem,69.6 µM
same,"Mouse PK AUClast, unbound (μg*h/mL) after 50 mg/kg oral dose",Mouse pharmacokinetics; 50 mg/kg oral,0.9 µg·h/mL
same,Mouse Clunbound,Mouse pharmacokinetics,575 mL/min/kg
"O=C1COc2ncc(CN[C@H]3CO[C@H](CC4Cn5c(=O)ccc6ccc(F)c4c65)OC3)nc2N1 (stereo partly drawn) [Compound 319, 6-(((2-((9-fluoro-4-oxo-1,2-dihydro-4H-pyrrolo[3,2,1-ij]quinolin-1-yl)methyl)-trans-1,3-dioxan-5-yl)amino)methyl)-2H-pyrazino[2,3-b][1,4]oxazin-3(4H)-one]",MIC90,FQ-R MRSA,0.5 µg/mL
same,FQ-R MRSA MIC90 (μg/mL),FQ-R MRSA,0.5/0.5 μg/mL
same,MIC,D83N,4 µg/mL
same,MIC,M121K,4 µg/mL
same,TopoIV/gyrase ratio,TopoIV/gyrase,0.65
same,pIC50,K562,3.87
same,half-life,[1],5.78 h
same,half-life,[2],> 2 h
same,half-life,Rat microsomal stability,> 2 h
same,half-life,Dog microsomal stability,> 2 h
same,half-life,[7],> 2 h
same,MIC50,Staphylococcus aureus,0.5 µg/mL
same,MIC90,Staphylococcus aureus,1 µg/mL
same,MIC50,Enterococcus spp.,4 µg/mL
same,MIC90,Enterococcus spp.,8 µg/mL
same,MIC50,Streptococcus pneumoniae,1 µg/mL
same,MIC90,Streptococcus pneumoniae,2 µg/mL
same,MIC50,Streptococcus pyogenes,2 µg/mL
same,MIC90,Streptococcus pyogenes,8 µg/mL
same,MIC50,Streptococcus agalactiae,16 µg/mL
same,MIC90,Streptococcus agalactiae,32 µg/mL
same,MIC50,Escherichia coli,16 µg/mL
same,MIC50,Pseudomonas aeruginosa,16 µg/mL
same,MIC,Escherichia coli 25922,16 µg/mL
same,MIC,[3],16 µg/mL
same,MIC,[4],64 µg/mL
same,Papp A→B,[8],0.8 ×10⁻⁶ cm/s
same,Papp A→B,[9],1.96 ×10⁻⁶ cm/s
same,MIC,S. aureus 29213,0.5 µg/mL
same,MIC,S. aureus USA300,0.5 µg/mL
same,MIC,S. aureus CF isolate,0.25 µg/mL
same,Mouse plasma protein binding (% unbound),,27 % unbound
same,Human plasma protein binding (% unbound),[6],23 % unbound
same,"Comprehensive in vitro proarrhythmia assay at 100 μM, inhibition",[10],All <25%
same,half-life,in vitro [11],> 4 h
same,half-life,in vitro [12],2.18 h
same,half-life,in vitro [13],> 4 h
same,solubility kinetic,physchem,25 µM
"O=c1ccc2ncc(=O)n3c2n1C[C@H]3CN1CCC(NCc2cc3c(cn2)OCCC3)CC1 [gepotidacin, reference compound]",MIC90,FQ-R MRSA,0.5 µg/mL
same,MIC50,Staphylococcus aureus,0.25 µg/mL
same,MIC90,Staphylococcus aureus,0.5 µg/mL
same,MIC50,[14],0.25 µg/mL
same,MIC90,[14],0.5 µg/mL
same,MIC50,Enterococcus spp.,2 µg/mL
same,MIC90,Enterococcus spp.,4 µg/mL
same,MIC50,Streptococcus pneumoniae,0.12 µg/mL
same,MIC90,Streptococcus pneumoniae,0.25 µg/mL
same,MIC50,Streptococcus pyogenes,0.12 µg/mL
same,MIC90,Streptococcus pyogenes,0.5 µg/mL
same,MIC50,Streptococcus agalactiae,0.5 µg/mL
same,MIC90,Streptococcus agalactiae,1 µg/mL
same,MIC50,Moraxella catarrhalis,0.06 µg/mL
same,MIC90,Moraxella catarrhalis,0.06 µg/mL
same,MIC50,Haemophilus influenzae,1 µg/mL
same,MIC90,Haemophilus influenzae,2 µg/mL
same,MIC50,Mycobacterium abscessus,16 µg/mL
same,MIC90,Mycobacterium abscessus,64 µg/mL
same,MIC50,Mycobacterium avium,32 µg/mL
same,MIC50,[15],> 64 µg/mL
same,MIC50,Bacillus anthracis,0.5 µg/mL
same,MIC90,Bacillus anthracis,0.5 µg/mL
same,MIC50,Francisella tularensis; read-out: Francisella tularensis MIC50 (μg/mL),0.12 µg/mL
same,MIC90,Francisella tularensis; read-out: Francisella tularensis MIC90 (μg/mL),0.5 µg/mL
same,MIC50,Yersinia pestis; read-out: Yersinia pestis MIC50 (μg/mL),0.12 µg/mL
same,MIC90,Yersinia pestis; read-out: Yersinia pestis MIC90 (μg/mL),0.5 µg/mL
same,MIC50,Burkholderia mallei; read-out: Burkholderia mallei MIC50 (μg/mL),8 µg/mL
same,MIC90,Burkholderia mallei; read-out: Burkholderia mallei MIC90 (μg/mL),≥ 64 µg/mL
same,MIC50,[16]; read-out: Burkholderia pseudomallei MIC50 (μg/mL),32 µg/mL
same,MIC90,[16]; read-out: Burkholderia pseudomallei MIC90 (μg/mL),32 µg/mL
same,MIC50,Neisseria gonorrhoeae,0.5 µg/mL
same,MIC90,Neisseria gonorrhoeae,1 µg/mL
same,MIC,Escherichia coli 25922,1 to 2 µg/mL
same,MIC,[3],32 µg/mL
same,MIC,[4],8 to 16 µg/mL
NXL-101,QT-prolongation in clinical studies,[17],withdrawn from clinical studies as a result of QT-prolongation
